According to patent publication US7982043B2, “Protein tyrosine kinase enzyme inhibitors” (Wyeth LLC, priority 2003, dated 2011):
In brackets after ≈: the same amount, converted by molar mass. Read-outs that look alike come from different tables or passages of the source.

Experiments:
SW620 cells = assay: Cell proliferation assay (SRB), SW620; assay type: cell-based; details: EGFR −, Her-2 −, 2 days, SRB; for IC50: Homo sapiens, SW-620, 48 h, read-out: CELL IC50 SW620
Her-2 = target: T1, Her-2 (Homo sapiens, UniProt P04626); assay: Her-2 receptor phosphorylation in BT474 cells (immunoblot); assay type: cell-based; details: Her-2 phosphorylation, 3 hours at 37° C., immunoblot; read-out: IC50 receptor phosphorylation BT474 (converted)
T1 construct: For Her-2 and EGFR phosphorylation assays, cells (BT474 and A431, respectively) were incubated with various concentrations of compound; endogenous in cells; host or cells: BT474

SK-Br-3 cells = assay: Cell proliferation assay (SRB), SK-Br-3; assay type: cell-based; details: EGFR −, Her-2 +++, 2 days, SRB; for IC50: Homo sapiens, SK-BR-3, 48 h, read-out: CELL IC50 SKBr3
A431 cells = assay: Cell proliferation assay (SRB), A431; assay type: cell-based; details: for IC50: Homo sapiens, A-431, 48 h, read-out: CELL IC50 A431
[1] = target: mouse fibroblast cell line transfected with the HER-2 oncogene (3T3/neu) (UniProt P04626, cells depend on it, species not given); assay: Cell proliferation assay (SRB), 3T3/neu; assay type: cell-based; details: EGFR −, Her-2 +++, 2 days, SRB; for GI50: read-out: CELL IC50 3T3/NEU (converted)
MDA-MB-435 cells = assay: Cell proliferation assay (SRB), MDA-MB-435; assay type: cell-based; details: EGFR −, Her-2 −, 2 days, SRB; for IC50: Homo sapiens, MDA-MB-435, 48 h, read-out: CELL IC50 MDA-MB-435
BT474 cells = assay: Cell proliferation assay (SRB), BT474; assay type: cell-based, human; details: Homo sapiens, BT-474, 144 h; EGFR +, Her-2 +++; 6 days, SRB; read-out: CELL IC50 BT474
3T3 cells = assay: Cell proliferation assay (SRB), 3T3; assay type: cell-based, mouse; details: Mus musculus, NIH3T3, 48 h; EGFR −, Her-2 −; 2 days, SRB; read-out: CELL IC50 3T3

Row | IC50 (A431 cells; EGFR +++, Her-2 +, 2 days, SRB) [µg/mL] | IC50 (BT474 cells) [µg/mL] | CELL IC50 SW620 (SW620 cells) [µg/mL] | CELL IC50 SKBr3 (SK-Br-3 cells) [µg/mL] | CELL IC50 A431 (A431 cells; EGFR +++, Her-2 +, 2 days, SRB) [µg/mL] | CELL IC50 3T3/NEU [1] [µg/mL] | CELL IC50 MDA-MB-435 (MDA-MB-435 cells) [µg/mL] | Compound | IC50 (SW620 cells) [µg/mL] | IC50 (Her-2) [nM] | IC50 (SK-Br-3 cells) [µg/mL] | IC50 (A431 cells) [µg/mL] | GI50 [1] [nM] | IC50 (MDA-MB-435 cells) [µg/mL] | IC50 (3T3 cells) [µg/mL]
1 | 0.162 (≈ 0.258 µM) |  |  |  |  |  |  | COc1cc2ncc(C#N)c(Nc3ccc(Sc4nc(-c5ccccc5)cs4)c(Cl)c3)c2cc1NC(=O)/C=C/CN(C)C [Example 58, (E)-N-(4-{3-chloro-4-[(4-phenyl-1,3-thiazol-2-yl)sulfanyl]anilino}-3-cyano-7-methoxy-6-quinolinyl)-4-(dimethylamino)-2-butenamide] | 0.57 (≈ 0.909 µM) | 79700 to 797000 | 0.005 (≈ 0.00797 µM) |  | 44.6 | 0.23 (≈ 0.367 µM) | 
2 |  | 0.003 (≈ 0.00534 µM) |  |  |  |  |  | CCOc1cc2ncc(C#N)c(Nc3ccc(OCc4cccs4)c(Cl)c3)c2cc1NC(=O)/C=C/CN(C)C [Example 76, (2E)-N-{4-[3-chloro-4-(2-thienylmethoxy)anilino]-3-cyano-7-ethoxy-6-quinolinyl}-4-(dimethylamino)-2-butenamide] | 0.25 (≈ 0.445 µM) | 2.67 | 0.004 (≈ 0.00712 µM) |  | 6.94 | 0.77 (≈ 1.37 µM) | 0.41 (≈ 0.729 µM)
3 |  |  | 1.45 | 0.32 | 0.51 | 1.46 | 0.57 | (E)-N-{4-[3-chloro-4-(1H-imidazol-1-yl)anilino]-3-cyano-7-methoxy-6-quinolinyl}-azol-1-yl)anilino]-4-(dimethylamino)-2-)anilino-2-butenamide [Example 43] |  |  |  |  |  |  | 

The next lines start with the compound.

Row | Compound | IC50 (A431 cells; EGFR +++, Her-2 +, 2 days, SRB) [µg/mL] | IC50 (BT474 cells) [µg/mL] | CELL IC50 SW620 (SW620 cells) [µg/mL] | CELL IC50 SKBr3 (SK-Br-3 cells) [µg/mL] | CELL IC50 A431 (A431 cells; EGFR +++, Her-2 +, 2 days, SRB) [µg/mL] | CELL IC50 3T3/NEU [1] [µg/mL] | CELL IC50 MDA-MB-435 (MDA-MB-435 cells) [µg/mL] | IC50 (SW620 cells) [µg/mL] | IC50 (Her-2) [nM] | IC50 (SK-Br-3 cells) [µg/mL] | IC50 (A431 cells) [µg/mL] | GI50 [1] [nM] | IC50 (MDA-MB-435 cells) [µg/mL] | IC50 (3T3 cells) [µg/mL]
4 | COc1cc2ncc(C#N)c(Nc3ccc(Sc4nccn4C)c(Cl)c3)c2cc1NC(=O)/C=C/CN(C)C [Example 37, (2E)-N-[4-({3-chloro-4-[(1-methyl-1H-imidazol-2-yl)sulfanyl]phenyl}amino)-3-cyano-7-methoxy-6-quinolinyl]-4-(dimethylamino)-2-butenamide] |  |  |  |  |  |  |  | 0.43 (≈ 0.785 µM) | < 1820 | 0.0004 (≈ 0.00073 µM) | 0.02 (≈ 0.0365 µM) | 36.5 | 0.43 (≈ 0.785 µM) | 
5 | COc1cc2ncc(C#N)c(Nc3ccc(Sc4nccs4)c(Cl)c3)c2cc1NC(=O)/C=C/CN(C)C [Example 40, (2E)-N-(4-{[3-chloro-4-(1,3-thiazol-2-ylsulfanyl)phenyl]amino}-3-cyano-7-methoxy-6-quinolinyl)-4-(dimethylamino)-2-butenamide] |  |  |  |  |  |  |  | 1.13 (≈ 2.05 µM) | 18100 to 90700 | 0.0007 (≈ 0.00127 µM) | 0.017 (≈ 0.0308 µM) | 3.63 | 0.33 (≈ 0.599 µM) | 
